Test system: tobacco budworm (Heliothis virescens [Fabricius])
Assay: surface-treated diet test against the tobacco budworm
Format: in vivo
Settings: tobacco budworm second instar larvae, 0.25 millimoles of candidate insecticide on the surface of the diet, five-day exposure; for Percent Mortality: compared to total number of insects infested; for Percent Growth Inhibition: inhibition of insect weight relative to untreated controls
Method in brief: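 Wheat germ artificial diet surface-treated with 40 µL of 50 mM DMSO stock diluted 1:7 in 1:1 water/acetone (0.25 millimolar on diet), or sub-multiples for rate tests. One second-instar larva per well, 25° C, 60% RH, 5 days; percent weight inhibition vs DMSO controls and percent mortality.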

SMILES | Percent Mortality (surface-treated diet) [%] | Percent Growth Inhibition (surface-treated diet) [%] | Percent Mortality [%] | Percent Growth Inhibition [%]
CC(C)C(=O)Nc1ccc(CN2CCC(C(OC(=O)Nc3cc(F)cc(F)c3)c3ccc(C(F)(F)F)cc3)CC2)cc1 (stereo not shown) [Compound 496] | 100 | 100 |  | 
FC(F)(F)c1ccc(C(=C2CC3CCCC(C2)N3Cc2ccc(Oc3ccccn3)cc2)c2ccc(C(F)(F)F)cc2)cc1 [Compound 117, 2-{4-[(9-aza-3-{bis[4-(trifluoromethyl)phenyl]methylene}bicyclo[3.3.1]non-9-yl)methyl]phenoxy}pyridine] | 100 | 100 |  | 
Fc1ccc(C(=C2CCN(Cc3ccccc3)CC2)c2ccc(C(F)(F)F)cc2)cc1 [Compound 31] | 17 | 99 |  | 
[O-][N+]1(Cc2ccc(Oc3ncccn3)cc2)CCC(=C(c2ccc(C(F)(F)F)cc2)c2cccc(F)c2)CC1 (stereo not shown) [Compound 848] |  |  | 83 | 100
CCON=Cc1ccc(CN2CCC(C(OC(=O)Nc3cccc(F)c3)c3ccc(Cl)cc3Cl)CC2)cc1 (stereo not shown) [Compound 530] | 100 | 100 |  | 
CC(C)NC(=O)Oc1ccc(CN2CCC(=C(c3ccc(C(F)(F)F)cc3)c3ccc(C(F)(F)F)cc3)CC2)cc1 [Compound 792] |  |  | 100 | 100
CCn1nnc(-c2ccc(CN3CCC(C(OC(=O)Nc4ccc(Br)cc4)c4ccc(OC(F)(F)F)cc4)CC3)cc2)n1 (stereo not shown) [Compound 270] | 100 | 100 |  | 
Cc1ccc(CNC(c2ccc(OC(F)(F)F)cc2)C2CCN(Cc3ccc(-c4nnn(C)n4)cc3)CC2)cc1 (stereo not shown) [Compound 317] | 100 | 100 |  | 
CCn1nnc(-c2ccc(CN3CCC(C(OC(=O)Nc4ccc(Cl)c(Cl)c4)c4ccc(OC)cc4)CC3)cc2)n1 (stereo not shown) [Compound 602] | 100 | 100 |  | 
CCn1nnc(-c2ccc(CN3CCC(C(OC(=O)Nc4cccc(C(F)(F)F)c4)c4cccc(F)c4)CC3)cc2)n1 (stereo not shown) [Compound 586] | 100 | 100 |  | 
Cn1nnc(-c2ccc(CN3CCC(=C(c4ccc(Cl)cc4)c4ccc(C(F)(F)F)cc4)CC3)cc2)n1 [Compound 74] | 100 | 100 |  | 
CN(C(=O)OC(c1ccc(Cl)cc1)C1CCN(Cc2ccc(Oc3ccccn3)cc2)CC1)c1ccc(C(F)(F)F)cc1 (stereo not shown) [Compound 636] | 100 | 100 |  | 
O=C(Nc1ccc(Cl)cc1)OC(c1ccc(C(F)(F)F)cc1)C1CC[N+]([O-])(Cc2ccc(Oc3ccccn3)cc2)CC1 (stereo not shown) [Compound 395, N-(4-chlorophenyl)({1-[(4-(2-pyridyloxy)phenyl)methyl](4-(1-oxypiperidyl))}[4-(trifluoromethyl)phenyl]methoxy)carboxamide] | 100 | 100 |  | 
CCNC(=O)OC(c1ccc(C(F)(F)F)cc1)C1CCN(Cc2ccc(Oc3ccccn3)cc2)CC1 (stereo not shown) [Compound 774] |  |  | 0 | 98
CCON=Cc1ccc(CN2CCC(C(OC(=O)Nc3ccc(OC)cc3)c3ccc(C(F)(F)F)cc3)CC2)cc1 (stereo not shown) [Compound 209] | 100 | 100 |  | 
FC(F)(F)Oc1ccc(C(Oc2ccc(C(F)(F)F)cc2)C2CCN(Cc3ccc(Oc4ncccn4)cc3)CC2)cc1 (stereo not shown) [Compound 456] | 17 | 100 |  | 
CC(C)OC(=O)c1ccc(CN2CCC(=C(c3ccc(C(F)(F)F)cc3)c3ccc(C(F)(F)F)cc3)CC2)cc1 [Compound 51] | 0 | 26 |  | 
Cn1nnc(-c2ccc(CN3CCC(C(OC(=O)Nc4ccc(OC(F)(F)F)cc4)c4ccc(OC(F)(F)F)cc4)CC3)cc2)n1 (stereo not shown) [Compound 294] | 100 | 100 |  | 
CC(C)OC(=O)Nc1ccc(C[N+]2([O-])CCC(=C(c3ccc(Cl)cc3)c3ccc(Cl)cc3)CC2)cc1 (stereo not shown) [Compound 831] |  |  | 100 | 100
O=C(Nc1ccc(Cl)cc1)OC(c1ccc(C(F)(F)F)cc1)C1CCN(Cc2ccc(-c3ccccc3)cc2)CC1 (stereo not shown) [Compound 543] | 100 | 100 |  | 
O=C(Nc1cc(F)cc(F)c1)OC(c1ccc(C(F)(F)F)cc1)C1CCN(Cc2ccc(Oc3ncc(Cl)cc3Cl)cc2)CC1 (stereo not shown) [Compound 686] | 17 | 98 |  | 
CCn1nnc(-c2ccc(CN3CCC(C(OC(=O)Nc4cc(Cl)ccc4Cl)c4ccc(C(F)(F)F)cc4)CC3)cc2)n1 (stereo not shown) [Compound 281] | 100 | 100 |  | 
CCn1nnc(-c2ccc(CN3CCC(C(OC(=O)Nc4cc(F)cc(F)c4)c4ccccc4Cl)CC3)cc2)n1 (stereo not shown) [Compound 570] | 100 | 100 |  | 
O=C(Nc1cc(F)cc(F)c1)OC(c1ccc(C(F)(F)F)cc1)C1CCN(Cc2ccc(Oc3cccc(Cl)n3)cc2)CC1 (stereo not shown) [Compound 685] | 100 | 100 |  | 

SMILES | Percent Mortality (surface-treated diet) [%] | Percent Growth Inhibition (surface-treated diet) [%] | Percent Mortality [%] | Percent Growth Inhibition [%]
CCON=Cc1ccc(CN2CCC(C(OC(=O)Nc3ccc(Cl)c(Cl)c3)c3ccc(C(F)(F)F)cc3)CC2)cc1 (stereo not shown) [Compound 189] | 100 | 100 |  | 
CCON=Cc1ccc(CN2CCC(C(OC(=O)Nc3cc(Cl)c(Cl)cc3Cl)c3ccc(C(F)(F)F)cc3)CC2)cc1 (stereo not shown) [Compound 192] | 67 | 98 |  | 
CCON=Cc1ccc(CN2CCC(C(OC(=O)Nc3ccc(Cl)cc3C(F)(F)F)c3ccc(C(F)(F)F)cc3)CC2)cc1 (stereo not shown) [Compound 206] | 100 | 100 |  | 
CCON=Cc1ccc(CN2CCC(C(OC(=O)Nc3cccc(F)c3)c3cc(Cl)cc(Cl)c3)CC2)cc1 (stereo not shown) [Compound 533] | 100 | 100 |  | 
CCCOc1ccc(CN2CCC(C(OC(=O)Nc3ccc(F)cc3)c3ccc(Cl)c(Cl)c3)CC2)cc1 (stereo not shown) [Compound 481] | 100 | 100 |  | 
O=C(Nc1cccc(C(F)(F)F)c1)OC(c1ccc(C(F)(F)F)cc1)C1CCN(Cc2ccc(Oc3ccccn3)cc2)CC1 (stereo not shown) [Compound 244] | 100 | 100 |  | 
CCn1nnc(-c2ccc(CN3CCC(C(OC(=O)Nc4ccc(Cl)cc4)c4ccccc4Cl)CC3)cc2)n1 (stereo not shown) [Compound 567] | 100 | 100 |  | 
Cn1nnc(-c2ccc(CN3CCC(C(NC(=O)c4ccc(Br)cc4)c4ccc(OC(F)(F)F)cc4)CC3)cc2)n1 (stereo not shown) [Compound 325] | 50 | 100 |  | 
O=C(Nc1ccc(Cl)cc1)OC(c1cc(Cl)cc(Cl)c1)C1CCN(Cc2ccc(Oc3ncccn3)cc2)CC1 (stereo not shown) [Compound 726] |  |  | 100 | 100
O=C(Nc1cccc(Cl)c1)OC(c1ccc(C(F)(F)F)cc1)C1CCN(Cc2ccc(Oc3ccccn3)cc2)CC1 (stereo not shown) [Compound 664] | 100 | 100 |  | 
[O-][N+]1(Cc2ccc(-c3ccccn3)cc2)CCC(=C(c2ccc(C(F)(F)F)cc2)c2ccc(C(F)(F)F)cc2)CC1 (stereo not shown) [Compound 840] |  |  | 100 | 100
CCn1nnc(-c2ccc(CN3CCC(C(OC(=O)Nc4ccc(C)cc4)c4ccc(OC(F)(F)F)cc4)CC3)cc2)n1 (stereo not shown) [Compound 285] | 100 | 100 |  | 
C#CCOC(=O)Nc1ccc(CN2CCC(=C(c3ccc(Cl)cc3)c3ccc(Cl)cc3)CC2)cc1 [Compound 801] |  |  | 100 | 100
O=C(Nc1cc(F)cc(F)c1)OC(c1ccc(C(F)(F)F)cc1)C1CCN(Cc2ccc(O)cc2)CC1 (stereo not shown) [Compound 464] | 0 | 63 |  | 
O=C(Nc1cccc(F)c1)OC(c1ccc(F)cc1)C1CCN(Cc2ccc(Oc3ncccn3)cc2)CC1 (stereo not shown) [Compound 716] |  |  | 100 | 100
CCON=Cc1ccc(CN2CCC(C(OC(=O)Nc3ccc(Cl)cc3Cl)c3ccc(C(F)(F)F)cc3)CC2)cc1 (stereo not shown) [Compound 190] | 100 | 100 |  | 
O=C(Nc1cc(F)cc(F)c1)OC(c1ccc(OC(F)(F)F)cc1)C1CCN(Cc2ccc(Oc3cccc[n+]3[O-])cc2)CC1 (stereo not shown) [Compound 709] |  |  | 100 | 100
CCON=Cc1ccc(CN2CCC(C(OC(=O)Nc3ccc(-c4ccccc4)cc3)c3ccc(C(F)(F)F)cc3)CC2)cc1 (stereo not shown) [Compound 212] | 100 | 100 |  | 
O=C(Nc1ccc(F)cc1)OC(c1ccc(C(F)(F)F)cc1)C1CCN(Cc2ccc(-n3cccn3)cc2)CC1 (stereo not shown) [Compound 555] | 33 | 100 |  | 
CCn1nnc(-c2ccc(CN3CCC(C(OC(=O)Nc4ccc(I)cc4)c4ccc(OC(F)(F)F)cc4)CC3)cc2)n1 (stereo not shown) [Compound 271] | 100 | 100 |  | 
C=CCOC(=O)Nc1ccc(C[N+]2([O-])CCC(=C(c3ccc(C(F)(F)F)cc3)c3ccc(C(F)(F)F)cc3)CC2)cc1 (stereo not shown) [Compound 836] |  |  | 100 | 100
O=C(Nc1ccc(Cl)cc1)OC(c1ccc(OC(F)(F)F)cc1)C1CCN(Cc2ccc(Oc3ncccn3)cc2)CC1 (stereo not shown) [Compound 733] |  |  | 100 | 100
CC(C)OC(=O)Nc1ccc(C[N+]2([O-])CCC(=C(c3ccc(C(F)(F)F)cc3)c3ccc(C(F)(F)F)cc3)CC2)cc1 (stereo not shown) [Compound 103] | 100 | 100 |  | 
